Measurements as given in ChEMBL document CHEMBL2021888, “Discovery of Novel α4β2 Neuronal Nicotinic Receptor Modulators through Structure-Based Virtual Screening” (ACS Med Chem Lett, 2011).

Assays:
[1] = target: T1, Neuronal acetylcholine receptor; alpha4/beta2 (Homo sapiens, UniProt P17787+P43681); test: Antagonist activity at human alpha4beta2 nAChR expressed in HEK tsA201 cells assessed as inhibition of epibatidine-induced intracellular calcium accumulation at 50 uM after 1 hr by fluorescence assay relative to control; format: functional, cell-based; conditions: HEK293, values are per cent of control
T1 sequence (P17787 whole entry): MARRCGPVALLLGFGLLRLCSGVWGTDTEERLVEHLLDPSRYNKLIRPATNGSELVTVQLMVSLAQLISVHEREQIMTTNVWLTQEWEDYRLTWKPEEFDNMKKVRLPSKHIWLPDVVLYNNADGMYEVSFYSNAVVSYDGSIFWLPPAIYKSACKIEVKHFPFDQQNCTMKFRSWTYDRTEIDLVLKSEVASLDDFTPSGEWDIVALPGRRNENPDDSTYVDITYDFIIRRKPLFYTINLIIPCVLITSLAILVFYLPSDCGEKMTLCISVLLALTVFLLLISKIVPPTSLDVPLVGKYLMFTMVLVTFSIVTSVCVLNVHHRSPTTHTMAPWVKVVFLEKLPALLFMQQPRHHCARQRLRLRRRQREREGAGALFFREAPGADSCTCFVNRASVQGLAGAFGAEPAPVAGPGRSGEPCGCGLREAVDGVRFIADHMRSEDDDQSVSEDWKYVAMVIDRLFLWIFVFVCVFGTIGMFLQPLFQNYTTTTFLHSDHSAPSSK
T1 sequence (P43681 whole entry): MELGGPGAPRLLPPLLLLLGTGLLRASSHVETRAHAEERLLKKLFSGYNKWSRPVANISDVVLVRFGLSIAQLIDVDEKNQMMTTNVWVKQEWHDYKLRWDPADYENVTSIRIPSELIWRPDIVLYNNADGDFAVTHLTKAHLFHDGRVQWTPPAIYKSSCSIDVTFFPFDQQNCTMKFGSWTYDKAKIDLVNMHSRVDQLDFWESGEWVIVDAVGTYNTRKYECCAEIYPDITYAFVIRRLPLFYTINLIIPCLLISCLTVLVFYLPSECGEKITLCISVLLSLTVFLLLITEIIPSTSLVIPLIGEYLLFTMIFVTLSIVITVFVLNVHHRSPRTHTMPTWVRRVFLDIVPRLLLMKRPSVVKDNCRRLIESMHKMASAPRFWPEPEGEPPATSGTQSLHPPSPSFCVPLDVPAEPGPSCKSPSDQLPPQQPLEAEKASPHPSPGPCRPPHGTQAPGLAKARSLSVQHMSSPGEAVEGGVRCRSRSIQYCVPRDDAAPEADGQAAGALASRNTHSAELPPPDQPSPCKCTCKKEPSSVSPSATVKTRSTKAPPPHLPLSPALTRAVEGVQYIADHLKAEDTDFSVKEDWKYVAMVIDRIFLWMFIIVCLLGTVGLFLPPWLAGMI

[2] = target: T1, Neuronal acetylcholine receptor; alpha4/beta2; test: Antagonist activity at human alpha4beta2 nAChR expressed in HEK tsA201 cells assessed as inhibition of epibatidine-induced intracellular calcium accumulation after 1 hr by fluorescence assay; format: functional, cell-based, HEK293
[3] = target: Neuronal acetylcholine receptor; alpha3/beta4 (Homo sapiens, UniProt P30926+P32297); test: Antagonist activity at human alpha3beta4 nAChR expressed in HEK tsA201 cells assessed as inhibition of epibatidine-induced intracellular calcium accumulation after 1 hr by fluorescence assay; format: functional, cell-based, HEK293
Sequence of Neuronal acetylcholine receptor; alpha3/beta4 (P30926 whole entry): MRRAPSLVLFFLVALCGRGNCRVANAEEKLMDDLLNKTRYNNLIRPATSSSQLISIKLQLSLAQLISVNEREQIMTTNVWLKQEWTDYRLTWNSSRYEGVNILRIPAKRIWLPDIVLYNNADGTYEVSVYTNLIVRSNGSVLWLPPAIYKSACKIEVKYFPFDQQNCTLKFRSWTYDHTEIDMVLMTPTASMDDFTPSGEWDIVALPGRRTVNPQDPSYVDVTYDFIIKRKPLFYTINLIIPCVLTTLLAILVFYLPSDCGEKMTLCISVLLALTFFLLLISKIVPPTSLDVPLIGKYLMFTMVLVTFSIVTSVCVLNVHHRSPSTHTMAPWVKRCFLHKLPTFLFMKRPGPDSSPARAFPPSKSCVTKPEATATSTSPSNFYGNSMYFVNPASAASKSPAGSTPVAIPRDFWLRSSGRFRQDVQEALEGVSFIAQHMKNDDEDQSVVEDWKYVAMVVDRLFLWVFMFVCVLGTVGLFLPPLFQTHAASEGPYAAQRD
Sequence of Neuronal acetylcholine receptor; alpha3/beta4 (P32297 whole entry): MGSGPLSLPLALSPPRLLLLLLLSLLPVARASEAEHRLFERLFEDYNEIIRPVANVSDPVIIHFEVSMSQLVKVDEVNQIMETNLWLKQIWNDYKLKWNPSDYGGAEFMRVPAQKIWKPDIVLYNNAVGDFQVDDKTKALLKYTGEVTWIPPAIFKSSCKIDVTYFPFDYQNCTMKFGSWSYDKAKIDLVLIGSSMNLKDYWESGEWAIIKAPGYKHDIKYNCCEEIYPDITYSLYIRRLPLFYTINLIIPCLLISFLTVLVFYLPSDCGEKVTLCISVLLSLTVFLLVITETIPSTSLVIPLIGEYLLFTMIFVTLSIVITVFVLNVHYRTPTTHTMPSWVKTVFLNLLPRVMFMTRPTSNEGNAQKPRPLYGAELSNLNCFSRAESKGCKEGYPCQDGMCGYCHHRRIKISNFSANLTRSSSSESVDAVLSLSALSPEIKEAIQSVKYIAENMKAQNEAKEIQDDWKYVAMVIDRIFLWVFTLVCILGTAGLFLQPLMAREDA

Row | SMILES | residual activity [1] | IC50 [2] | IC50 [3]
1 | COC(=O)c1ccc(N2CCN(C)CC2)c(NC(=O)Cc2ccccc2)c1 | 71% |  | 
2 | O=C(CN1CCN(S(=O)(=O)c2ccc(F)cc2)CC1)Nc1ccccc1F | 46.9% | 9.8 µM | 19.6 µM
3 | Cc1cccc(NC(=O)c2cc(N)ccc2N2CCCCC2)n1 | 47.7% | 14.4 µM | 46.3 µM
4 | C=CCN1C(=O)[C@](O)(CC(=O)c2ccco2)c2cc(Cl)ccc21 | 51.1% | 6.1 µM | > 100 µM
5 | O=C(O)CCC(=O)Nc1cc(F)ccc1F | 83.3% |  | 
6 | Cc1cccc(C(C)C)c1NC(=O)c1ccccc1NS(C)(=O)=O | 74% |  | 
7 | O=C(CSc1nnc(-c2ccccn2)o1)Nc1cccc2ccccc12 | 76.2% |  | 
8 | C=C(C)CN1C(=O)C(O)(CC(=O)c2ccccn2)c2ccccc21 (configuration not stated) | 59.9% |  | 
9 | Cn1c(=O)c2[nH]c(CN3CCc4ccccc4C3)nc2n(C)c1=O | 83.2% |  | 
10 | O=C(O)c1cc(NCc2cccs2)ccc1N1CCOCC1 | 49.5% | 20.6 µM | > 100 µM
11 | O=C(CN1CCN(c2ccccc2)CC1)NCc1ccco1 | 59.8% |  | 
12 | CC(=O)N1CCN(c2ccc(NC(=O)c3cccnc3)cc2Cl)CC1 | 103% |  | 
13 | CC(=O)Nc1ccc2c(c1)nc(CN1CCCCC1)n2C | 86.2% |  | 
14 | O=C(Nc1ccc(F)cc1)C1CC(=O)n2c(nc3ccccc32)N1 (configuration not stated) | 72.5% |  | 
